One compound from patent US11779582B2, “Composition for preventing or treating metastatic ovarian cancer, endometrial cancer or breast cancer” (LEMONEX INC., priority 2017, dated 2023) can be followed below.

Structures are written as SMILES.

What all share (type): cell-based
Series [1] deals with SKOV3ip1. Kind of series: crystal violet staining assay, cisplatin and BGJ398, 2D culture. To be noted: SKOV3ip1, BGJ398 in combination with cisplatin (FIGS. 30 and 31). On the procedure:
(§1) According to the same procedures as described in the previous examples, each cell line was subjected to 2D culture and a change thereof upon administration of cisplatin alone, BGJ398 alone or in combination with cisplatin was analyzed through crystal violet staining assay.

Series [2] deals with SKOV3-TR. Described as above. As to conditions: BGJ398 in combination with cisplatin (FIGS. 30 and 31). On the procedure:
as §1

Series [3] deals with SKOV3ip1-TR ovarian cancer cells. Kind of series: microscopic analysis of cell shape change. As to conditions: BGJ398 in combination with paclitaxel (FIG. 21). On the procedure: FIG. 21 illustrates a change in cell shape, when paclitaxel alone, BGJ398 alone or in combination with […] was administered to the SKOV3ip1-TR ovarian cancer cells.
Series [4] concerns sphere cultured SKOV3ip1 ovarian cancer cells. Kind of series: crystal violet cell viability, 3D sphere culture. On the procedure: (§2) For 3D sphere culture, SKOV3ip1 cells (1×10^6) were dispensed on ultra-low adherent 6-well plate (Corning NY, USA), and then, cultured in 5% CO2 incubator using RPMI 1640 medium supplemented with 10% fetal bovine serum (Gibco, NY, USA) and 10 U/ml penicillin/streptomycin (Gibco).
In order to assess the cell viability in the sphere cultured cells, the SKOV3ip1 cells (5×10^4) were dispensed on the super-low adherent 24-well plate and cultured overnight. The cells were harvested from each well and the commercial 24-well plate was moved, followed by further incubation for 12 hours. The adhered and visualized cells were stained with 0.2% crystal violet solution for 20 minutes while gently agitating the same. The stained cells were washed with distilled water until a clean background is observed. For assessment using a colorimeter, the crystal violet dye was extracted with 1% SDS/PBS and absorbance was measured at 570 nm wavelength by EMax PLUS microplate reader (Molecular Device, USA).
The monolayer cultured or sphere cultured SKOV3ip1 cells were treated with the tyrosine kinase inhibitor and paclitaxel for 72 hours, the cell viability was determined by the crystal violet colorimeter, and results thereof are shown in FIG. 3.
Since the cell survival of the sphere cultured SKOV3ip1 cells is inhibited by BGJ398 treatment, whether such cell survival inhibition is intermediated through JAK/STAT3 signaling pathway was further examined. For this purpose, the selective JAK tyrosine kinase inhibitor AG490 was used at different concentrations of 3.125 to 50 μM in order to treat the monolayer cultured or sphere cultured SKOV3ip1 cells, and after 72 hours, whether it affects the cell viability and AKT and STAT3 activation was examined through crystal violet staining and immunostaining assay, and results thereof are shown in FIG. 7. Actin was used as a loading control group.
Under this ground, when administering BGJ398 in combination with paclitaxel typically used as the existing primary anticancer drug for ovarian cancer, whether paclitaxel resistance of the sphere cultured cells is overcome and improved was determined.

Series [5] relates to SKOV3-TR ovarian cancer cells. Kind of series: microscopic analysis of cell shape change due to cytotoxicity. On the procedure:
(§3) According to the same procedures as described in the previous examples, each cell line was divided and cultured by 2D monolayer culture and 3D sphere culture, respectively. Then, a change due to administration of BGJ398 alone or in combination with paclitaxel was analyzed through morphological analysis and crystal violet staining assay.
FIG. 20 illustrates a change in cell shape due to cytotoxicity under microscopic analysis, when paclitaxel alone, BGJ398 alone or in combination with paclitaxel was administered to SKOV3-TR ovarian cancer cells.

The subject of series [6] is sphere cultured SKOV3ip1 cells. Nature of the series: microscopic observation of aggregated (spheroid) form. As to conditions: 5 μM BGJ398, 3 μM TAE648, 5 μM imatinib (FIG. 5). On the procedure: as §2
The test system of series [7] is cleaved PARP in SKOV3-TR ovarian cancer cells. Nature of the series: cleaved PARP immunostaining. To be noted: BGJ398 in combination with paclitaxel (FIGS. 24 and 25). An excerpt: In order to identify whether a change in signaling pathways associated with cell survival appears or not according to 2D monolayer culture (2D MC) and 3D sphere culture (3D SC), immunostaining was implemented. More particularly, after culturing SKOV3ip1 cells (1×10^6) by 2D monolayer culture or 3D sphere culture described in section 1.1, expression of cell-signaling molecules including AKT, STAT3, p42/44 ERK and p38 MAPK was detected and activation states in the monolayer cultured cells and the sphere cultured cells were compared. […] An immune activation band was detected with SuperSignal West Pico Chemiluminescent Substrate (Thermo, IL, USA) using a Fusion Solo chemiluminescence analyzer (Vilber Rourmat Marne la Vallee, France). […]
FIGS. 24 and 25 illustrate expression of cleaved PARP and actin upon administration of paclitaxel alone, BGJ398 alone or in combination with paclitaxel to SKOV3-TR ovarian cancer cells, which was determined by the immunostaining method described above.

The test system of series [8] is SKOV3-TR ovarian cancer cells. Nature of the series: crystal violet cell viability in paclitaxel-resistant cells. On the procedure:
SKOV3-TR cell line was offered from Sood AK in MD-Anderson Cancer Center (USA) and then used in the present experiments.
Paclitaxel resistance of each of SKOV3 and SKOV3-TR was determined by measuring the cell viability through crystal violet colorimetric assay. This experiment was implemented three times and a difference in results thereof was estimated by student's t-test.
as §3

As for `CCN1CCN(c2ccc(Nc3cc(N(C)C(=O)Nc4c(Cl)c(OC)cc(OC)c4Cl)ncn3)cc2)CC1` [BGJ398, 3-(2,6-dichloro-3,5-dimethoxyphenyl)-1-[6-[4-(4-ethylpiperazin-1yl)anilino]pyrimidin-4-yl]-1-methylurea], the anticancer activity entry in series [1] was “anticancer activity is improved”; in series [2] it was “anticancer activity is improved”; in series [8] (BGJ398 at increasing concentration in combination with paclitaxel (FIG. 18)), “higher anticancer activity with the increased concentration of BGJ398”; in series [8] (BGJ398 in combination with paclitaxel at increasing concentration (FIG. 19)), “higher anticancer activity with the increased concentration of paclitaxel”; in series [8] (BGJ398 in combination with paclitaxel vs paclitaxel alone (FIG. 16)) it was “significantly improved”; in series [8] (BGJ398 in combination with paclitaxel, 2D monolayer culture and 3D sphere culture (FIG. 17)) it was “more improved”. Besides, the “paclitaxel resistance / anticancer activity (cell shape)” value in series [3] is “can block paclitaxel resistance, thereby increasing anticancer activity”. For the same compound, the paclitaxel sensitivity entry in series [4] (3D cultured SKOV3ip1, 1.25 and 5 μM BGJ398 with paclitaxel vs BGJ398 untreated group) is on record as “increased paclitaxel sensitivity in a dose-dependent manner”. The cytotoxicity entry in series [4] (3D sphere cultured SKOV3ip1, 1 μM BGJ398, Day 3) is “showed cytotoxicity”. Moreover, the cell viability entry in series [4] (sphere cultured SKOV3ip1, 72 hours, different concentrations, crystal violet colorimeter (FIG. 3)) was “reduced the cell viability in a dose-dependent manner”. The cell apoptosis result in series [4] (sphere cultured SKOV3ip1, paclitaxel in combination with BGJ398 vs paclitaxel alone, 72 hours (FIG. 8)) is on record as “higher cell apoptosis than the cells treated with paclitaxel alone”. Further, the “cytotoxicity and morphological change” value in series [5] (2.5 μM BGJ398 in combination with 50 nM paclitaxel (FIG. 20)) is “a detachment phenomenon due to cytotoxicity and formation of cells in irregular shapes”; in series [5] (single agent: 2.5 μM BGJ398 or 50 nM paclitaxel (FIG. 20)) it was “negligible cytotoxicity and no morphological change”. Also, the “aggregated (spheroid) form of cells” value in series [6] is “did not retain a normal coagulation state”. For the same compound, in series [7], the “expression of cleaved PARP and actin” value is “increased in concentration- and time-dependent manners”.
